Measurements as given in ChEMBL document CHEMBL1158466, “Discovery of novel 2-aminobenzamide inhibitors of heat shock protein 90 as potent, selective and orally active antitumor agents” (J Med Chem, 2009).
pIC50, pKd: −log10 of the molar value. Converted amounts (≈) assume the structure as drawn.

What was measured:
[1] = target: T1, Heat shock protein HSP90 (Homo sapiens, UniProt P07900+P08238); type: cell-based; conditions: au565
[2] = Binding affinity to pig spleen Hsp90 ATPase pocket by Bradford assay; type: tissue-based, Sus scrofa
[3] = target: T1, Heat shock protein HSP90; conditions: a-375
Description: Inhibition of Hsp90 in human A375 cells assessed as Hsp70 induction after 24 hrs by high content screening

[4] = test system: MCF7; assay: Antiproliferative activity against human MCF7 cells after 72 to 144 hrs by cyquant DNA dye method; type: functional, cell-based
[5] = test system: LNCaP; assay: Antiproliferative activity against human LNCAP cells after 72 to 144 hrs by cyquant DNA dye method; type: functional, cell-based
[6] = test system: A-375; assay: Antiproliferative activity against human A375 cells after 72 to 144 hrs by cyquant DNA dye method; type: functional, cell-based
[7] = test system: HT-29; assay: Antiproliferative activity against human HT-29 cells after 72 to 144 hrs by cyquant DNA dye method; type: functional, cell-based
[8] = target: T1, Heat shock protein HSP90; conditions: au565
Description: Inhibition of Hsp90 in human AU565 cells assessed as pERK degradation after 24 hrs by high content screening

[9] = test system: PC-3; assay: Antiproliferative activity against human PC3 cells after 72 to 144 hrs by cyquant DNA dye method; type: functional, cell-based
[10] = test system: NCI-H460; assay: Antiproliferative activity against human NCI-H460 cells after 72 to 144 hrs by cyquant DNA dye method; type: functional, cell-based
[11] = test system: MDA-MB-231; assay: Antiproliferative activity against human MDA-MB-231 cells after 72 to 144 hrs by cyquant DNA dye method; type: functional, cell-based
[12] = target: T1, Heat shock protein HSP90; conditions: a-375; remark: listed apart in the source
Description: Inhibition of Hsp90 in human A375 cells assessed as pS6 degradation after 24 hrs by high content screening

[13] = Oral bioavailability in rat; type: ADME, organism-based; conditions: in vivo
[14] = test system: HCT-15; assay: Antiproliferative activity against human HCT15 cells after 72 to 144 hrs by cyquant DNA dye method; type: functional, cell-based
[15] = test system: SW-620; assay: Antiproliferative activity against human SW620 cells after 72 to 144 hrs by cyquant DNA dye method; type: functional, cell-based
[16] = test system: K562; assay: Antiproliferative activity against human K562 cells after 72 to 144 hrs by cyquant DNA dye method; type: functional, cell-based
[17] = test system: SK-MEL-5; assay: Antiproliferative activity against human SK-MEL-5 cells after 72 to 144 hrs by cyquant DNA dye method; type: functional, cell-based
[18] = test system: Liver microsomes; assay: Metabolic stability in human liver microsomes at 1 uM after 1 hr; type: ADME, Microsome
[19] = Oral bioavailability in mouse; type: ADME, organism-based; conditions: in vivo
[20] = Solubility of the compound; type: physicochemical
[21] = Aqueous solubility in phosphate-buffered saline at pH 7.4; type: physicochemical
[22] = Metabolic stability in human liver S9 fraction assessed as drug remaining at 1 uM after 1 hr; type: ADME, subcellular; conditions: read-out: Stability

SMILES | pIC50 [1] | pKd [2] | IC50 [1] [µM] | also measured
CC1(C)CC(=O)c2c(C(F)(F)F)nn(-c3ccc(C(N)=O)c(NCCCN4CCCC4=O)c3)c2C1 | 6.58 | 7.03 | – | –
Cc1c2c(n(-c3ccc(C(N)=O)c(N[C@H]4CC[C@H](O)CC4)c3)c1C)CC(C)(C)CC2=O | 7.19 | 7.07 | – | –
Cc1cn(-c2ccc(C(N)=O)c(N[C@@H](C)c3ccccc3)c2)c2c1C(=O)CC(C)(C)C2 | 6.38 | 5.99 | – | –
Cc1cn(-c2ccc(C(N)=O)c(N3CCNCC3)c2)c2c1C(=O)CC(C)(C)C2 | < 5.15 | 6.07 | – | –
CCCCOc1cc(-n2c(C)cc3c2CC(C)(C)CC3=O)ccc1C(N)=O | – | < 4.30 | > 10 | –
COc1ccc(Nc2cc(-n3c(C)cc4c3CC(C)(C)CC4=O)ccc2C(N)=O)cc1 | – | 6.16 | 1.59 | –
Cc1cc2c(n1-c1ccc(C(N)=O)c(Sc3ccccc3)c1)CC(C)(C)CC2=O | – | 5.97 | > 10 | –
COc1cc(Nc2cc(-n3cc(C)c4c3CC(C)(C)CC4=O)ccc2C(N)=O)cc(OC)c1OC | – | 6.41 | 0.046 | –
Cc1nn(-c2ccc(C(N)=O)c(NCc3ccco3)c2)c2c1C(=O)CC(C)(C)C2 | < 6.00 | 6.67 | – | –
Cc1nn(-c2ccc(C(N)=O)c(NCC3CC3)c2)c2c1C(=O)CC(C)(C)C2 | 6.74 | 7.29 | – | –
Cc1nn(-c2ccc(C(N)=O)c(NC(C)S(C)(=O)=O)c2)c2c1C(=O)CC(C)(C)C2 (stereo unspecified) | 6.83 | 7.85 | – | –
COc1cc(Nc2cc(-n3c(C)cc4c3CC(C)(C)CC4=O)ccc2C(N)=O)cc(OC)c1OC | – | 6.66 | 0.49 | –
COc1cc(Nc2cc(-n3ccc4c3CC(C)(C)CC4=O)ccc2C(N)=O)cc(OC)c1OC | – | 9.23 | 1.83 | –
Cc1cn(-c2ccc(C(N)=O)c(N[C@H]3CC[C@H](O)CC3)c2)c2c1C(=O)CC(C)(C)C2 | 8.15 | 7.57 | – | IC50 [3]: 0.014 µM; pIC50 [4]: 8.00; pIC50 [5]: 8.40; pIC50 [6]: 8.05; pIC50 [7]: 8.15; IC50 [8]: 0.016 µM; pIC50 [9]: 7.85; pIC50 [10]: 6.61; pIC50 [11]: 8.00; IC50 [12]: 0.007 µM; bioavailability [13]: 10%; pIC50 [14]: 7.21; pIC50 [15]: 8.22; pIC50 [16]: 8.52; pIC50 [17]: 8.15
Cc1nn(-c2ccc(C(N)=O)c(N[C@H]3CC[C@H](O)CC3)c2)c2c1C(=O)CC(C)(C)C2 | 7.52 | 7.80 | – | –
COCC(COC)Nc1cc(-n2nc(C(F)(F)F)c3c2CC(C)(C)CC3=O)ccc1C(N)=O | 6.74 | 7.11 | – | –
Cc1nn(-c2ccc(C(N)=O)c(NC3CC=CC3)c2)c2c1C(=O)CC(C)(C)C2 | 6.95 | 7.82 | – | –
CC1(C)CC(=O)c2c(C(F)(F)F)nn(-c3ccc(C(N)=O)c(N[C@H]4CC[C@H](O)CC4)c3)c2C1 [SNX-2112] | – | 7.80 | – | Stability [18]: Stable; pIC50 [4]: 7.28; pIC50 [5]: 8.52; pIC50 [6]: 7.64; pIC50 [7]: 8.52; bioavailability [19]: 40%; pIC50 [9]: 7.77; pIC50 [10]: 7.74; pIC50 [11]: 8.22; solubility [20]: 170 µM (≈ 79 µg/mL); solubility [21]: 6 µM (≈ 2.79 µg/mL); pIC50 [14]: 7.28; pIC50 [15]: 8.52; remaining at 1 h, 1 µM [22]: 88%; pIC50 [16]: 8.22; pIC50 [17]: 8.22
C=CCNC1=C2C[C@@H](C)C[C@H](OC)[C@H](O)[C@@H](C)/C=C(\C)[C@H](OC(N)=O)[C@@H](OC)/C=C\C=C(/C)C(=O)NC(=CC1=O)C2=O [TANESPIMYCIN] | – | 7.06 | – | pIC50 [4]: 9.52; pIC50 [5]: 7.09; pIC50 [6]: 5.89; pIC50 [7]: 10.00; pIC50 [9]: 8.05; pIC50 [10]: 6.59; pIC50 [11]: 6.71; pIC50 [14]: 5.83; pIC50 [15]: 6.48; pIC50 [16]: 6.90; pIC50 [17]: 6.87

Now from value to compound, other results behind:

pIC50 [1] | pKd [2] | IC50 [1] [µM] | SMILES | also measured
7.30 | 7.37 | – | Cc1nn(-c2ccc(C(N)=O)c(NC3CCOCC3)c2)c2c1C(=O)CC(C)(C)C2 | –
6.69 | 6.75 | – | CC(C)c1nn(-c2ccc(C(N)=O)c(N[C@H]3CC[C@H](O)CC3)c2)c2c1C(=O)CC(C)(C)C2 | –
6.65 | 7.20 | – | CSCCNc1cc(-n2nc(C)c3c2CC(C)(C)CC3=O)ccc1C(N)=O | –
– | 6.03 | 1.61 | COc1cc(Nc2cc(-n3cc(C)c4c3CCCC4=O)ccc2C(N)=O)cc(OC)c1OC | –
– | 6.43 | 6.4 | Cc1cc2c(n1-c1ccc(C(N)=O)c(Nc3ccccc3)c1)CC(C)(C)CC2=O | –
– | 6.41 | > 10 | COCCNc1cc(-n2c(C)cc3c2CC(C)(C)CC3=O)ccc1C(N)=O | –
< 5.40 | 6.53 | – | Cc1cn(-c2ccc(C(N)=O)c(NCCN3CCOCC3)c2)c2c1C(=O)CC(C)(C)C2 | –
– | 5.43 | > 100 | Cc1cc2c(n1-c1ccc(C(N)=O)cc1)CC(C)(C)CC2=O | –
– | 5.71 | > 10 | CCCCCc1cc(-n2c(C)cc3c2CC(C)(C)CC3=O)ccc1C(N)=O | –
7.34 | 7.39 | – | CC1(C)CC(=O)c2c(CC3CC3)nn(-c3ccc(C(N)=O)c(N[C@H]4CC[C@H](O)CC4)c3)c2C1 | –
7.80 | 7.01 | – | CC1(C)CC(=O)c2c(C(F)F)nn(-c3ccc(C(N)=O)c(N[C@H]4CC[C@H](O)CC4)c3)c2C1 | –
– | 6.28 | – | CC1(C)CC(=O)c2c(C(F)(F)F)nn(-c3ccc(C(N)=O)c(N[C@H]4CC[C@@H](O)CC4)c3)c2C1 | –
7.46 | 7.96 | – | CC1(C)CC(=O)c2c(C(F)F)nn(-c3ccc(C(N)=O)c(NC4CCSCC4)c3)c2C1 | –
6.94 | 7.17 | – | COCC(C)Nc1cc(-n2nc(C)c3c2CC(C)(C)CC3=O)ccc1C(N)=O (stereo unspecified) | –
– | 6.41 | > 10 | CCCCNc1cc(-n2c(C)cc3c2CC(C)(C)CC3=O)ccc1C(N)=O | –
8.05 | 7.70 | – | CCc1nn(-c2ccc(C(N)=O)c(N[C@H]3CC[C@H](O)CC3)c2)c2c1C(=O)CC(C)(C)C2 | –
6.64 | 6.94 | – | Cc1nn(-c2ccc(C(N)=O)c(NC3CCC3)c2)c2c1C(=O)CC(C)(C)C2 | –
